Measurements as given in publication PMC8595612, “Hydrogen peroxide signaling via its transformation to a stereospecific alkyl hydroperoxide that escapes reductive inactivation” (Nature Communications, 2021).

B1: His-tagged wild type human Prx2 (peroxiredoxin 2) (enzyme, UniProt P32119 1-198, looked up)
chain: MASGNARIGKPAPDFKATAVVDGAFKEVKLSDYKGKYVVLFFYPLDFTFVCPTEIIAFSNRAEDFRKLGCEVLGVSVDSQFTHLAWINTPRKEGGLGPLNIPLLADVTRRLSEDYGVLKTDEGIAYRGLFIIDGKGVLRQITVNDLPVGRSVDEALRLVQAFQYTDEHGEVCPAGWKPGSDTIKPNVDDSKEYFSKHN
notes: human peroxiredoxin 2 (Prx2), wild type; also called His-tagged Prx2; pre-reduced His-tagged Prx2; source: E. coli BL21 (DE3), pET-28a, purified (Ni-NTA)
B2: untagged human Prx2 (His-tag cleaved with Factor Xa) (enzyme, UniProt P32119 1-198, looked up)
chain: B1 chain
notes: human peroxiredoxin 2 (Prx2), wild type; also called untagged Prx2; source: E. coli BL21 (DE3), pET-28a, purified (Ni-NTA), tag cleaved with Factor Xa
B3: purified recombinant human protein kinase G 1α (PKG1α) (enzyme, UniProt Q13976 1-671, looked up)
chain: MSELEEDFAKILMLKEERIKELEKRLSEKEEEIQELKRKLHKCQSVLPVPSTHIGPRTTRAQGISAEPQTYRSFHDLRQAFRKFTKSERSKDLIKEAILDNDFMKNLELSQIQEIVDCMYPVEYGKDSCIIKEGDVGSLVYVMEDGKVEVTKEGVKLCTMGPGKVFGELAILYNCTRTATVKTLVNVKLWAIDRQCFQTIMMRTGLIKHTEYMEFLKSVPTFQSLPEEILSKLADVLEETHYENGEYIIRQGARGDTFFIISKGTVNVTREDSPSEDPVFLRTLGKGDWFGEKALQGEDVRTANVIAAEAVTCLVIDRDSFKHLIGGLDDVSNKAYEDAEAKAKYEAEAAFFANLKLSDFNIIDTLGVGGFGRVELVQLKSEESKTFAMKILKKRHIVDTRQQEHIRSEKQIMQGAHSDFIVRLYRTFKDSKYLYMLMEACLGGELWTILRDRGSFEDSTTRFYTACVVEAFAYLHSKGIIYRDLKPENLILDHRGYAKLVDFGFAKKIGFGKKTWTFCGTPEYVAPEIILNKGHDISADYWSLGILMYELLTGSPPFSGPDPMKTYNIILRGIDMIEFPKKIAKNAANLIKKLCRDNPSERLGNLKNGVKDIQKHKWFEGFNWEGLRKGTLTPPIIPSVASPTDTSNFDSFPEDNDEPPPDDNSGWDIDF
notes: human cGMP-dependent protein kinase 1, isoform alpha (PKG1α); also called PK1α; source: FreeStyle 293-F cells, transfected, purified (Ni-NTA, HiTrap Q), His-tag cleaved with TEV protease

What was measured:
Prx4 = molecular target: T1, Prx4 (Homo sapiens, UniProt Q13162); test: redox blotting, estimated rate constant at […] °C; assay type: biochemical
T1 construct: gene PRDX4; His-tagged wild type human Prx4
T1 sequence (Q13162 38-271): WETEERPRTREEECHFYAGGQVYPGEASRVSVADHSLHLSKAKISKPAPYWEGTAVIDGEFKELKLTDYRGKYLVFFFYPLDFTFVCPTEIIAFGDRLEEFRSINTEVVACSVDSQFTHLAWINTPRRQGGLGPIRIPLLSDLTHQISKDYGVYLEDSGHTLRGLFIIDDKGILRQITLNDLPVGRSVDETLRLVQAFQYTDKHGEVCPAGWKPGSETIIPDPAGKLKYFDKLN

PKG1α = molecular target: T2, PKG1α (Homo sapiens, UniProt Q13976); test: oxidative dimerization of purified PKG1α, non-reducing SDS-PAGE; assay type: biochemical
T2 construct: gene PRKG1; purified recombinant PKG1α, His-tag cleaved
T2 sequence (Q13976 2-671): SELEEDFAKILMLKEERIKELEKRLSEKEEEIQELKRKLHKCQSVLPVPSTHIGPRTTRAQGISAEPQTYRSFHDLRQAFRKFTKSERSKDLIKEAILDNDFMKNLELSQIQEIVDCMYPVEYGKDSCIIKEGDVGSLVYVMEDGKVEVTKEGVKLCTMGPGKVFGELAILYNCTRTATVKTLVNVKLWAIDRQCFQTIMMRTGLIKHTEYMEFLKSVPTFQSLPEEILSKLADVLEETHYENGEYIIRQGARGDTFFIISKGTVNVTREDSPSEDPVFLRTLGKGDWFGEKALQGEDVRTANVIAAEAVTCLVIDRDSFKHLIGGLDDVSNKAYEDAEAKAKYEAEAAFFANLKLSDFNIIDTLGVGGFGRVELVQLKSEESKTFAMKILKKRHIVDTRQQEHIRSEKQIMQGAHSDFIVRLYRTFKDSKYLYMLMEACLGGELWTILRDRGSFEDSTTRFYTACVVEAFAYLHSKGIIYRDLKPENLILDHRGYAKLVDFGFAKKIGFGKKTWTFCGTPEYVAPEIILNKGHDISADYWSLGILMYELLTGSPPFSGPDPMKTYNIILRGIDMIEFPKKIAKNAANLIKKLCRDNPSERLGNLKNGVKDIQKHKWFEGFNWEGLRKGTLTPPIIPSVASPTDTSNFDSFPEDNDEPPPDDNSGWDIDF

GPx4 = molecular target: T3, GPx4 (Rattus norvegicus, UniProt P36970); test: coupled NADPH oxidation assay, apparent second-order rate constant; assay type: biochemical
T3 construct: GPx4 isolated from rat testis mitochondria
T3 sequence (P36970 28-197): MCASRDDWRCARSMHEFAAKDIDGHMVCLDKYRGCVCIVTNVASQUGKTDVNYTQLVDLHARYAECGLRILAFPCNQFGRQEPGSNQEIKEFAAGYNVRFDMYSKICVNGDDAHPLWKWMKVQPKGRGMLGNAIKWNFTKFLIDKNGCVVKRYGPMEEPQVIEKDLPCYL

[1] = molecular target: the molecule itself; test: non-reducing SDS-PAGE (disulfide-linked dimer, redox blotting); purified pre-reduced Prx (20 uM) incubated with cis-WOOH, trans-WOOH (1-20 uM) or H2O2 (2.5-20 uM) for 10 s at 5 °C in 50 mM sodium phosphate pH 7.4 with 100 uM DTPA; NEM 50 mM; non-reducing 4-12% SDS-PAGE, silver stain; monomer and dimer bands
[2] = molecular target: the molecule itself; test: non-reducing SDS-PAGE (disulfide-linked dimer); purified PKG1α (3.3 uM) with 200 uM cis-WOOH or H2O2, 5 min, 25 °C, 25 mM phosphate pH 7.0, 200 uM TCEP; stopped with 125 mM maleimide; non-reducing 4-12% SDS-PAGE, silver stain

Molecule | redox blotting, estimated rate constant at 5 °C (Prx4) | coupled NADPH oxidation assay, apparent second-order rate constant (GPx4) | binding result [1] | also measured
O=C(O)[C@@H]1C[C@@]2(OO)c3ccccc3N[C@H]2N1 [cis-WOOH] | ~ 10^3 M^−1 s^−1 | 1e+06 M⁻¹ s⁻¹ | – | oxidative dimerization of purified PKG1α, non-reducing SDS-PAGE (PKG1α): cis-WOOH caused greater PKG1α dimerization than the same concentrations of H2O2
O=C(O)[C@@H]1C[C@]2(OO)c3ccccc3N[C@@H]2N1 [trans-WOOH] | ~ 10^3 M^−1 s^−1 | 1.6e+06 M⁻¹ s⁻¹ | – | –
B1 | – | – | binds | –
B2 | – | – | binds | –
B3 | – | – | – | binding result [2]: binds
